Data on one compound can be found in article PMC6757420, “Identifying the active components of Baihe–Zhimu decoction that ameliorate depressive disease by an effective integrated strategy: a systemic pharmacokinetics study combined with classical depression model tests” (Chinese Medicine, 2019).

For one data set, the system named is dopamine (DA). Briefly: content of dopamine (DA) by ELISA kit. Type of data set: in vivo, ICR mice. The settings on record: Table 5; 10 mg/kg oral; control 171.6 ± 54.5. The method, then:
(§1) The antidepressant activity of the drugs was evaluated by classic behavioral measurements, such as the forced swimming test (FST) and tail suspension test (TST). All the ICR mice were randomly divided into several groups (n = 8) as follows: a control group with stimulation and different test groups subjected to FST and TST after the oral administration of different drugs for 8 days, including fluoxetine (10 mg/kg), BZD (3 g/kg), ZD (3 g/kg), Baihe decoction (BD, 3 g/kg), PZ (21.2 mg/kg), XZ (21.2 mg/kg), SZ (21.2 mg/kg), timosaponin BII (10 mg/kg) and timosaponin BIII (10 mg/kg).
(§2) The contents of dopamine (DA) and serotonin (5-HT) in the plasma were determined using ELISA Kits (Shanghai Jianglai Biotech Co., Ltd., Shanghai, China) according to the manufacturer’s instructions.
A general note: ELISA stands for enzyme-linked immunosorbent assay.

Data set [1] is described as follows: pharmacokinetic study of five major components after oral administration of BZD (HPLC-QQQ MS). The class given is in vivo, Sprague–Dawley (SD) rats. Particulars: rats, oral BZD 15 g/kg; for Cmax / Tmax / half-life / AUC(0-t): Sprague-Dawley, rat, po, 15 g/kg, n = 5; for Cmax: read-out: Cmax; for Tmax: read-out: Tmax; for AUC(0-t): read-out: AUC0–t; for ER (liver extraction ratio): from portal vein plasma and systemic plasma. The method, then:
The HPLC-QQQ MS method was developed according to a previous study in our group. Briefly, five compounds were simultaneously determined in plasma, liver and brain samples using a 1260 Series liquid chromatography system (Agilent Technologies, Palo Alto, CA, USA) coupled to a 6460 triple quadrupole mass spectrometer with an electrospray ionization source (Agilent Technologies, Palo Alto, CA, USA). Chromatographic separation was performed on an ACE Super C18 column (100 mm × 2.1 mm, 3.0 µm, Advanced Chromatography Technologies Ltd. Aberdeen, Scotland) at a temperature of 40 °C. The mobile phase consisted of water containing 0.1% formic acid (A) and acetonitrile containing 0.1% formic acid (B). The gradient program was performed as follows: 0–3 min, 92% A; 3.5–4.0 min, 88–60% A; 5.5–6 min, 60–55% A; 6.6–7 min, 55–5% A; 11–11.01 min, 5–92% A; 11.01–13.5 min, 92% A. The flow rate was set to 0.35 mL/min in the time range of 0–6.6 min and kept at 0.45 mL/min between 7 and 13.5 min. Five components were monitored in negative multiple reaction monitoring (MRM) mode. The parameters of the mass spectrometer were as follows: capillary voltage, 3500 V; nebulizer, 45 psi; gas temperature, 350 °C; gas flow rate, 12 L/min; sheath gas temperature, 400 °C; sheath gas flow rate, 8 L/min. MassHunter Workstation software (Agilent Technologies, Palo Alto, CA, USA) was used for system operation and data analysis.
All Sprague–Dawley (SD) rats and ICR mice were purchased from Shanghai SLAC Laboratory Animal Co., Ltd. and kept in the breeding room at 22 ± 2 °C and 50 ± 10% humidity in Shanghai Institute of Materia Medica (SIMM). The experimental protocols were approved by the Institutional Animal Care and Use Committee in SIMM. After 1 week of acclimation, all the SD rats were orally administered BZD (15 g/kg). The biological samples were collected from the rats after fasting for 12 h. After anaesthetization, the rats were dissected at 5 min, 15 min, 30 min, 1 h, 2 h, 4 h, 7 h, 10 h, 20 h and 40 h (n = 5 for each time-point). The hepatic portal vein plasma (2 mL) and the systemic plasma (6–8 mL) were subsequently harvested, and finally the liver and brain tissue samples were collected. The plasma sample were centrifuged at 9500×g for 5 min, and the tissue samples were washed with saline solution. All samples were stored at − 80 °C until analysis. The samples were prepared according to the method described in the previous study by our group.
A noncompartmental analysis was carried out using WinNonlin software (Pharsight 6.2, NC, USA) to calculate the PK parameters. The significance of the results in behavior assessment was analyzed by unpaired Student’s t-tests. A P value less than 0.05 was considered significant. The liver extraction ratio (ER) indicated the fraction of hepatic clearance and first-pass effect, and the calculation formula was as reported in a previous study by our group.

Data set [2] concerns ICR mice. Description: tail suspension test (TST). Type of data set: in vivo. The settings on record: Table 4, oral administration for 8 days, n = 8, 10 mg/kg, control 102.0 ± 16.9. The method, then:
as §1
(§3) The FST was performed according to a previously described method with minor modifications. Briefly, each mouse was individually placed in an open water-filled cylinder (H: 50 cm; Ø: 20 cm; water depth: 35 cm; temperature: 23–25 °C) and allowed to swim for a period of 6 min. The total time of immobility was recorded during the last 4 min of the testing duration. Immobility is defined as the mice floating in the water without movement. The TST was conducted as described in the literature. Briefly, the mice were suspended 20 cm above the floor for 6 min. The time of immobility was recorded after the first 2 min. Mice in a completely motionless state were considered immobile.

The subject of data set [3] is ICR mice. Briefly: forced swimming test (FST). Type of data set: in vivo. Particulars: Table 4, oral administration for 8 days, n = 8, 10 mg/kg, control 118.1 ± 24.3. The method, then:
as §1, §3

Another data set concerns serotonin (5-HT). Description: content of serotonin (5-HT) by ELISA kit. The class given is in vivo, ICR mice. The settings on record: Table 5; 10 mg/kg oral; control 636.2 ± 80.1. The method, then: as §1, §2
Another data set has as its system depressive rats. The settings on record: depressive rats; likely related to the content of 5-HT in the brain; cited from earlier work.
The mark [4] stands for this setting: hepatic portal vein plasma, portal vein plasma.
Setting [5] is: systemic plasma, systemic plasma.

Where two headings read alike, the source gives them in different places.

With `C[C@@H](CC[C@@]1(O)O[C@H]2C[C@H]3[C@@H]4CC[C@@H]5C[C@@H](O[C@@H]6O[C@H](CO)[C@H](O)[C@H](O)[C@H]6O[C@@H]6O[C@H](CO)[C@@H](O)[C@H](O)[C@H]6O)CC[C@]5(C)[C@H]4CC[C@]3(C)[C@H]2[C@@H]1C)CO[C@@H]1O[C@H](CO)[C@@H](O)[C@H](O)[C@H]1O` [Timosaponin BII, timosaponin BII], the “Content (ng/g) DA” value in the data set on dopamine (DA) is recorded as 196.9 ± 56.7 ng/g. Further, the Cmax in data set [1] (cerebellum, cerebellum) is 1170 ± 93.4 ng/g; in data set [1] (setting [4]), 880 ± 160 ng/mL; in data set [1] (hippocampus, hippocampus), 372 ± 154 ng/g; in data set [1] (liver, liver) it was 302 ± 102 ng/g; in data set [1] (setting [5]) it was 277 ± 48.4 ng/mL. Moreover, the Tmax in data set [1] (cerebellum, cerebellum) amounted to 0.25 h; in data set [1] (setting [4]), 0.25 h; in data set [1] (hippocampus, hippocampus), 10 h; in data set [1] (liver, liver), 0.08 h; in data set [1] (setting [5]) it was 0.25 h. Also, the half-life in data set [1] (cerebellum) is 16.2 h; in data set [1] (setting [4]), 119 h; in data set [1] (hippocampus), 27.4 h; in data set [1] (liver) it was 116 h; in data set [1] (systemic plasma), 35.8 h. For the same compound, the AUC(0-t) is 1090 ± 184 ng·h/mL in data set [1] (setting [4]) and 976 ± 254 ng·h/mL in data set [1] (setting [5]). Moreover, the “ER (liver extraction ratio)” value in data set [1] and in data set [1] (listed as timosaponin BII) was 10.88% throughout. Also, the “Immobility time (mean ± SD, s) TST” value in the data set on ICR mice [2] came out at 48.2 ± 23.1 s. Besides, in the data set with ICR mice [3], the “Immobility time (mean ± SD, s) FST” value turned out to be 72.1 ± 19.6 s. Further, in the data set with serotonin (5-HT), the “Content (ng/g) 5-HT” value came to 716.5 ± 90.4 ng/g. Moreover, the antidepressant effect entry in the data set on depressive rats was “significant antidepressant effect”.

The term Cmax denotes the highest concentration seen after dosing. In general, Tmax refers to the time at which the peak concentration occurs. In general, half-life refers to the time in which the quantity being followed falls by half. Read a high half-life as slow decline.
